Source: PubChem BioAssay (NCI)
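The compound was tested at five concentrations on cells cultured in 96-well plates, with a 48-hour exposure period. GI50 is the concentration that inhibits growth by half. TGI is the concentration that stops growth completely.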

Experiments:
Assay in all cases: NCI-60 cell line screen, 48 h
RXF 393 renal = system: RXF 393 renal
A549 NSCLC = system: A549 NSCLC
SF-295 CNS = system: SF-295 CNS
OVCAR-4 ovarian = system: OVCAR-4 ovarian
SK-OV-3 ovarian = system: SK-OV-3 ovarian
KM12 colon = system: KM12 colon
ACHN renal = system: ACHN renal
UACC-257 melanoma = system: UACC-257 melanoma
U251 CNS = system: U251 CNS
IGROV1 ovarian = system: IGROV1 ovarian
PC-3 prostate = system: PC-3 prostate
MOLT-4 leukemia = system: MOLT-4 leukemia
HCT-116 colon = system: HCT-116 colon
HOP-62 NSCLC = system: HOP-62 NSCLC
M14 melanoma = system: M14 melanoma
HCC-2998 colon = system: HCC-2998 colon
DU-145 prostate = system: DU-145 prostate
MDA-MB-231 breast = system: MDA-MB-231 breast
TK-10 renal = system: TK-10 renal
786-0 renal = system: 786-0 renal
SK-MEL-28 melanoma = system: SK-MEL-28 melanoma
NCI-H226 lung = system: NCI-H226 lung
HL-60(TB) leukemia = system: HL-60(TB) leukemia
OVCAR-8 ovarian = system: OVCAR-8 ovarian
OVCAR-5 ovarian = system: OVCAR-5 ovarian
NCI/ADR-RES ovarian = system: NCI/ADR-RES ovarian
BT-549 breast = system: BT-549 breast
NCI-H23 lung = system: NCI-H23 lung
EKVX NSCLC = system: EKVX NSCLC
HOP-92 NSCLC = system: HOP-92 NSCLC
LOX IMVI melanoma = system: LOX IMVI melanoma
CAKI-1 renal = system: CAKI-1 renal
HT29 colon = system: HT29 colon
UACC-62 melanoma = system: UACC-62 melanoma
A498 renal = system: A498 renal
MCF7 breast = system: MCF7 breast
OVCAR-3 ovarian = system: OVCAR-3 ovarian
SN12C renal = system: SN12C renal
SNB-19 CNS = system: SNB-19 CNS
SK-MEL-5 melanoma = system: SK-MEL-5 melanoma
COLO 205 colon = system: COLO 205 colon
SF-268 CNS = system: SF-268 CNS
RPMI-8226 leukemia = system: RPMI-8226 leukemia
T-47D breast = system: T-47D breast
SR leukemia = system: SR leukemia
CCRF-CEM leukemia = system: CCRF-CEM leukemia
HCT-15 colon = system: HCT-15 colon
UO-31 renal = system: UO-31 renal
SW-620 colon = system: SW-620 colon
SK-MEL-2 melanoma = system: SK-MEL-2 melanoma
SNB-75 CNS = system: SNB-75 CNS
NCI-H460 lung = system: NCI-H460 lung
K-562 leukemia = system: K-562 leukemia
NCI-H522 lung = system: NCI-H522 lung
MALME-3M melanoma = system: MALME-3M melanoma

With `CO[C@H]1C(=O)[C@]2(C)[C@@H](OC)C[C@H]3OC[C@@]3(OC(C)=O)[C@H]2[C@H](OC(=O)c2ccccc2)[C@]2(O)C[C@H](OC(=O)[C@H](O)[C@@H](NC(=O)OC(C)(C)C)c3ccccc3)C(C)=C1C2(C)C` the GI50 (RXF 393 renal) was less than 10 nM, the TGI (RXF 393 renal) was 10700 nM and the GI50 (A549 NSCLC) was less than 10 nM. The TGI (A549 NSCLC) was greater than 64900 nM, the GI50 (SF-295 CNS) was less than 10 nM and the TGI (SF-295 CNS) was 23900 nM. It also gave a TGI (OVCAR-4 ovarian) greater than 77100 nM, a GI50 (SK-OV-3 ovarian) of less than 10 nM and a TGI (SK-OV-3 ovarian) of 35200 nM. The GI50 (KM12 colon) was less than 10 nM, the TGI (KM12 colon) was 22400 nM and the GI50 (ACHN renal) was 12600 nM. It also gave a TGI (ACHN renal) greater than 100000 nM, a TGI (UACC-257 melanoma) greater than 63000 nM and a GI50 (U251 CNS) of less than 10 nM. The TGI (U251 CNS) was 23800 nM, the GI50 (IGROV1 ovarian) was less than 10 nM and the TGI (IGROV1 ovarian) was greater than 100000 nM. For the same molecule, the GI50 (PC-3 prostate) was less than 10 nM, the TGI (PC-3 prostate) was greater than 77800 nM and the GI50 (MOLT-4 leukemia) was less than 11.4 nM. The TGI (MOLT-4 leukemia) was 27800 nM, the GI50 (HCT-116 colon) was less than 10 nM and the TGI (HCT-116 colon) was 21200 nM. For the same molecule, the GI50 (HOP-62 NSCLC) was less than 10 nM, the TGI (HOP-62 NSCLC) was greater than 80400 nM and the GI50 (M14 melanoma) was less than 10 nM. For the same molecule, the TGI (M14 melanoma) was 17800 nM, the GI50 (HCC-2998 colon) was less than 10 nM and the TGI (HCC-2998 colon) was less than 16.8 nM. The GI50 (DU-145 prostate) was less than 10 nM, the TGI (DU-145 prostate) was less than 10 nM and the GI50 (MDA-MB-231 breast) was less than 18.3 nM. The TGI (MDA-MB-231 breast) was greater than 53600 nM, the GI50 (TK-10 renal) was less than 10 nM and the TGI (TK-10 renal) was 31300 nM. It also gave a GI50 (786-0 renal) of less than 10 nM, a TGI (786-0 renal) of 87300 nM and a TGI (SK-MEL-28 melanoma) of 39800 nM. For the same molecule, the GI50 (NCI-H226 lung) was 2090 nM, the TGI (NCI-H226 lung) was 39700 nM and the GI50 (HL-60(TB) leukemia) was less than 10 nM. For the same molecule, the TGI (HL-60(TB) leukemia) was less than 10 nM, the GI50 (OVCAR-8 ovarian) was less than 10 nM and the TGI (OVCAR-8 ovarian) was greater than 100000 nM. For the same molecule, the GI50 (OVCAR-5 ovarian) was less than 10 nM, the TGI (OVCAR-5 ovarian) was 41500 nM and the GI50 (NCI/ADR-RES ovarian) was 26.9 nM. The TGI (NCI/ADR-RES ovarian) was 1240 nM, the GI50 (BT-549 breast) was less than 10 nM and the TGI (BT-549 breast) was 26800 nM. The GI50 (NCI-H23 lung) was less than 10 nM, the TGI (NCI-H23 lung) was greater than 100000 nM and the GI50 (EKVX NSCLC) was 425 nM. It also gave a TGI (EKVX NSCLC) greater than 100000 nM, a TGI (HOP-92 NSCLC) of 33000 nM and a GI50 (LOX IMVI melanoma) of less than 10 nM. The TGI (LOX IMVI melanoma) was 49700 nM, the TGI (CAKI-1 renal) was greater than 52900 nM and the GI50 (HT29 colon) was less than 10 nM. For the same molecule, the TGI (HT29 colon) was 11500 nM, the GI50 (UACC-62 melanoma) was less than 14.7 nM and the TGI (UACC-62 melanoma) was 56800 nM. The GI50 (A498 renal) was less than 10 nM, the TGI (A498 renal) was 10100 nM and the GI50 (MCF7 breast) was less than 10 nM. The TGI (MCF7 breast) was 20500 nM, the GI50 (OVCAR-3 ovarian) was less than 10 nM and the TGI (OVCAR-3 ovarian) was less than 10 nM. The GI50 (SN12C renal) was less than 10 nM, the TGI (SN12C renal) was greater than 100000 nM and the GI50 (SNB-19 CNS) was less than 13.4 nM. For the same molecule, the TGI (SNB-19 CNS) was greater than 100000 nM, the GI50 (SK-MEL-5 melanoma) was less than 10 nM and the TGI (SK-MEL-5 melanoma) was 17300 nM. It also gave a GI50 (COLO 205 colon) of less than 10 nM, a TGI (COLO 205 colon) of 10.3 nM and a GI50 (SF-268 CNS) of less than 10 nM. For the same molecule, the TGI (SF-268 CNS) was 68600 nM, the GI50 (RPMI-8226 leukemia) was less than 10 nM and the TGI (RPMI-8226 leukemia) was greater than 38000 nM. It also gave a GI50 (T-47D breast) of less than 10 nM, a TGI (T-47D breast) greater than 100000 nM and a GI50 (SR leukemia) of less than 10 nM. The GI50 (CCRF-CEM leukemia) was less than 10 nM, the TGI (CCRF-CEM leukemia) was 42300 nM and the GI50 (HCT-15 colon) was less than 10 nM. The TGI (HCT-15 colon) was 56000 nM, the GI50 (UO-31 renal) was less than 10 nM and the TGI (UO-31 renal) was 54300 nM. The GI50 (SW-620 colon) was less than 10 nM, the TGI (SW-620 colon) was greater than 100000 nM and the GI50 (SK-MEL-2 melanoma) was less than 10 nM. The TGI (SK-MEL-2 melanoma) was 973 nM, the GI50 (SNB-75 CNS) was less than 10 nM and the TGI (SNB-75 CNS) was less than 10 nM. For the same molecule, the GI50 (NCI-H460 lung) was less than 10 nM, the TGI (NCI-H460 lung) was 13000 nM and the GI50 (K-562 leukemia) was less than 10 nM. It also gave a TGI (K-562 leukemia) greater than 100000 nM.
In the case of `O=C1c2ccccc2-c2c1c1ccccc1c(=O)n2CCCNCCNCCCn1c2c(c3ccccc3c1=O)C(=O)c1ccccc1-2`, the GI50 (A549 NSCLC) is reported as 53.4 nM, the TGI (A549 NSCLC) is reported as 1630 nM and the GI50 (SF-295 CNS) is reported as 78.2 nM. It also gave a TGI (SF-295 CNS) of 2320 nM, a GI50 (OVCAR-4 ovarian) of 694 nM and a TGI (OVCAR-4 ovarian) of 4560 nM. For the same molecule, the GI50 (SK-OV-3 ovarian) was 1330 nM, the GI50 (KM12 colon) was less than 40 nM and the TGI (KM12 colon) was 415 nM. It also gave a GI50 (ACHN renal) of less than 10 nM, a TGI (ACHN renal) of 1310 nM and a GI50 (UACC-257 melanoma) of 1240 nM. It also gave a TGI (UACC-257 melanoma) of 3470 nM, a GI50 (U251 CNS) of 118 nM and a TGI (U251 CNS) of 2330 nM. It also gave a GI50 (IGROV1 ovarian) of less than 36.7 nM, a TGI (IGROV1 ovarian) greater than 32900 nM and a GI50 (PC-3 prostate) of 92.9 nM. It also gave a TGI (PC-3 prostate) of 1840 nM, a GI50 (MOLT-4 leukemia) of less than 10 nM and a TGI (MOLT-4 leukemia) greater than 100000 nM. For the same molecule, the GI50 (HCT-116 colon) was less than 10 nM, the TGI (HCT-116 colon) was 163 nM and the GI50 (HOP-62 NSCLC) was less than 17.2 nM. The TGI (HOP-62 NSCLC) was 582 nM, the GI50 (M14 melanoma) was 288 nM and the TGI (M14 melanoma) was 1930 nM. It also gave a TGI (DU-145 prostate) of 1070 nM, a GI50 (MDA-MB-231 breast) of less than 38.1 nM and a TGI (MDA-MB-231 breast) of 437 nM. For the same molecule, the GI50 (TK-10 renal) was 279 nM, the TGI (TK-10 renal) was 2080 nM and the GI50 (SK-MEL-28 melanoma) was 1090 nM. For the same molecule, the TGI (SK-MEL-28 melanoma) was greater than 100000 nM, the GI50 (NCI-H226 lung) was less than 26.7 nM and the TGI (NCI-H226 lung) was 1980 nM. It also gave a GI50 (HL-60(TB) leukemia) of 3510 nM, a TGI (HL-60(TB) leukemia) greater than 100000 nM and a GI50 (OVCAR-8 ovarian) of less than 10 nM. The TGI (OVCAR-8 ovarian) was 1660 nM, the GI50 (OVCAR-5 ovarian) was 1290 nM and the TGI (OVCAR-5 ovarian) was 2930 nM. It also gave a GI50 (NCI/ADR-RES ovarian) of 358 nM, a TGI (NCI/ADR-RES ovarian) of 1750 nM and a GI50 (NCI-H23 lung) of 508 nM. For the same molecule, the TGI (NCI-H23 lung) was 2570 nM, the GI50 (EKVX NSCLC) was 1230 nM and the TGI (EKVX NSCLC) was 2880 nM. It also gave a GI50 (LOX IMVI melanoma) of less than 10 nM, a TGI (LOX IMVI melanoma) of 355 nM and a GI50 (HT29 colon) of less than 10 nM. For the same molecule, the GI50 (UACC-62 melanoma) was 174 nM, the TGI (UACC-62 melanoma) was 1880 nM and the TGI (SN12C renal) was 1810 nM. It also gave a GI50 (SF-268 CNS) of 16.6 nM, a TGI (SF-268 CNS) of 2500 nM and a GI50 (RPMI-8226 leukemia) of less than 10 nM. It also gave a TGI (RPMI-8226 leukemia) of 221 nM, a GI50 (SR leukemia) of 50.9 nM and a TGI (SR leukemia) greater than 100000 nM. For the same molecule, the GI50 (CCRF-CEM leukemia) was 14.2 nM, the TGI (CCRF-CEM leukemia) was 498 nM and the GI50 (NCI-H522 lung) was 151 nM. For the same molecule, the GI50 (HCT-15 colon) was 83.1 nM, the TGI (HCT-15 colon) was 560 nM and the GI50 (UO-31 renal) was 342 nM. It also gave a GI50 (SW-620 colon) of less than 10 nM, a TGI (SW-620 colon) of 258 nM and a GI50 (SK-MEL-2 melanoma) of 2020 nM. For the same molecule, the GI50 (MALME-3M melanoma) was 681 nM, the TGI (MALME-3M melanoma) was 2270 nM and the GI50 (K-562 leukemia) was less than 33.5 nM. For the same molecule, the TGI (K-562 leukemia) was greater than 100000 nM.
